The source of these data is patent publication US12187688B2, “Crystal form of tetramethylpyrazine nitrone, preparation method and use thereof” (GUANGZHOU MAGPIE PHARMACEUTICALS CO., LTD., priority 2019, dated 2025).

Data set [1] is described as follows: distribution in tissues after intravenous administration to SD rats. It counts as in vivo. The conditions noted are these: 30 mg/kg i.v. The protocol: SD rats were given the crystal form A of TBN at a dose of 30 mg/kg by intravenous injection and the distribution of the crystal form A of TBN in various tissues was investigated.
A short description of data set [2]: pharmacokinetic study in the cerebrospinal fluid of cynomolgus monkey. It counts as in vivo. The following applies: plasma, iv, 30 mg/kg, 10 min after the second administration, 30 mg/kg i.v., read-out: concentration of the drug in plasma.
A short description of data set [3]: in vitro cell experiments (effective protection concentration). The data set is classed as cell-based.
Data set [4] can be described thus: pharmacokinetic study in the cerebrospinal fluid of cynomolgus monkey. The data set is classed as in vivo. The method, then: The pharmacodynamic study in cynomolgus monkey animal model of cerebral stroke and also the pharmacokinetic study of the crystal form A of TBN in the cerebrospinal fluid of cynomolgus monkey were carried out. 10 min, 30 min, 60 min, and 120 min after the second administration (30 mg/kg, 6 hrs after the first intravenous administration of 30 mg/kg), 0.5 ml of cerebrospinal fluid was collected for pharmacokinetic test.

Data set [5] in a line: Test of stability against mechanical treatment (grinding). The data set is classed as physicochemical. The following applies: ground for 10 min. The protocol:
(2) The crystal form A of TBN and the TBN dihydrate were ground for 10 min receptively, and the treated samples were analyzed by XRPD.

Data set [6] in a line: Test of stability against cold/heat treatment. The data set is classed as physicochemical. The protocol:
(4) The crystal form A was cooled to −55° C., and then heated to 25° C.
(5) The crystal form A was heated to 110° C. (before the decomposition point), and then cooled to 25° C. to obtain a yellow oily liquid.
(6) The TBN dihydrate was heated to 110° C. (before the decomposition point), and then cooled to 25° C. to obtain a yellow oily liquid.

The nature of data set [7]: Polymorph transformation test of suspension. The data set is classed as physicochemical. The following applies: petroleum ether, room temperature, 7 days. The protocol:
(1) The crystal form A of TBN was beaten in petroleum ether (1.0 mL) at room temperature for 7 days, and then the suspension was centrifuged, and the solid sample was collected for characterization by XRPD.

The nature of another data set: Solubility in solvents. It counts as physicochemical.
Data set [8] is described as follows: Test of influence of acceleration. It counts as physicochemical.
The next data set is described as follows: Tableting test. The data set is classed as physicochemical. The following applies: 2 tons for 2 min. The protocol:
(3) The crystal form A and the TBN dihydrate were tableted under a pressure of 2 tons for 2 min. The tablets thus obtained were analyzed by XRPD.

Molecules are shown by their SMILES. Several values for one entry are separate records, joined by “and”; a condition that tells them apart may be missing. Identical values can stand only once. Like-named read-outs stand apart in the source and are kept apart here.

For the compound `Cc1nc(C)c(/C=[N+](\[O-])C(C)(C)C)nc1C` [TBN, (Z)-2-methyl-N-((3,5,6-trimethylpyrazin-2-yl)methylene)propan-2-amine oxide], in data set [1], the “accumulation in the detected tissues” value is “does not tend to accumulate”. Further, the “time to clearance from the tissues and plasma” value in data set [1] is not above 24 h. The results for the “concentration in the brain tissue relative to plasma concentration” value in [1] (0.25 hrs after administration) and in data set [1] (after 4 hrs) were 0.6-0.7 time the plasma concentration and 0.8-1.1 times the plasma concentration, respectively. In addition, in [1] (at 24 hrs), the “clearance from brain tissue” value was “completely cleared”. Besides, in [1] (female and male), the tissue distribution result is “rapid and widespread distribution”. For the same compound, the concentration at 10 min in data set [2] worked out at 195 µM; in data set [4] (cerebrospinal fluid, iv, 30 mg/kg, 10 min after second intravenous 30 mg/kg dose, individual animals, read-out: Drug concentration in cerebrospinal fluid), 48800 ng/mL; in data set [4] (cerebrospinal fluid, iv, 30 mg/kg, 10 min after the second administration, 30 mg/kg i.v., read-out: concentration of TBN in the cerebrospinal fluid), 176 µM. In data set [3], this compound returned an effective protection concentration of 30 µM. The “Drug concentration in cerebrospinal fluid” value in [4] (10 min after second intravenous 30 mg/kg dose, individual animals, 30 mg/kg) was 33700 ng/mL and 34300 ng/mL; in data set [4] (30 min after second intravenous 30 mg/kg dose, individual animals, 30 mg/kg) it was 32200 ng/mL and 25100 ng/mL; in data set [4] (60 min after second intravenous 30 mg/kg dose, individual animals, 30 mg/kg) it was 25300 ng/mL and 20000 ng/mL; in [4] (120 min after second intravenous 30 mg/kg dose, individual animals, 30 mg/kg) it was 16500 ng/mL and 14300 ng/mL and 7800 ng/mL. Moreover, in data set [4] (cerebrospinal fluid, iv, 30 mg/kg, 30 min after second intravenous 30 mg/kg dose, individual animals, read-out: Drug concentration in cerebrospinal fluid), the concentration at 30 min worked out at 41100 ng/mL. Moreover, the concentration at 60 min in data set [4] (cerebrospinal fluid, iv, 30 mg/kg, 60 min after second intravenous 30 mg/kg dose, individual animals, read-out: Drug concentration in cerebrospinal fluid) turned out to be 27500 ng/mL.
Consider `Cc1nc(C)c(/C=[N+](\[O-])C(C)(C)C)nc1C` [crystal form A of TBN, (Z)-2-methyl-N-((3,5,6-trimethylpyrazin-2-yl)methylene)propan-2-amine oxide], for which the “crystal form (XRPD) after grinding” value in data set [5] was “no change”. Also, the “polymorph transformation after cooling treatment” value in data set [6] (cooled to −55° C., then heated to 25° C.) is on record as “does not undergo polymorph transformation”. For the same compound, the “crystal form by XRPD after thermal treatment” value in data set [6] (heated to 110° C., cooled to 25° C., solid precipitated after stirring) is listed as “characterized by XRPD as crystal form A”. The “crystal form by XRPD after suspension beating” value in [7] was “still crystal form A”. Also, the solubility entry is given as “readily soluble” in “Solubility in solvents” (most solvents (acetonitrile, methanol, ethanol, acetone, ethyl acetate)) and “very soluble” in “Solubility in solvents” (water). In addition, the “crystal form by XRPD after acceleration” value in data set [8] (7 days at 40° C. and RH=75%) is “shows crystal form A”. The “stability in heat treatment, mechanical treatment and acceleration” value in data set [8] (acceleration (50° C., 75% RH)) is “stable”. Further, the “polymorph transformation after tableting (XRPD)” value in the data set “Tableting test” is reported as “do not undergo polymorph transformation”. For the same compound, the blood-brain barrier penetration result in data set [4] (30 mg/kg i.v.) is given as “penetrate through the blood-brain barrier”.
